# “And” between values parts separate entries of the source, which are not always exact repeats. Identical values can stand only once. Bridges are numbered along the chain shown (N, C = ends). Where no end group is shown, it is not given here.
# How the values were obtained:
# [1] = tested on: mouse brain endothelial bEnd.3 cells; experiment: Permeability of mouse brain endothelial cell monolayer to FITC-40 kDa Dextran; assay type: cell-based; conditions: for Permeability to FITC-40 kDa Dextran (endothelial permeability coefficient Pe): individual replicates N1-N3
# Description: To determine the effect of NX218 on the permeability of mouse brain endothelial cells to a 40-kDa FITC Dextran, cells were grown on a semi-permeable membrane inserted in culture wells in presence or absence of NX218. Then, the FITC Dextran was placed on the apical chamber (containing the cells) and its levels measured (based on its fluorescence) one hour later in the basolateral chamber.
# Mouse brain endothelial cells (bEnd.3, American Type Culture Collection) were cultured in DMEM supplemented with 10% FBS and 2 mM sodium pyruvate in a 5% CO2 incubator at 37° C.
# bEnd.3 cells were grown to confluence on 1% fibronectin-coated Corning HTS 24-well Transwell polyester inserts with a pore size of 0.4 μm (5×10^4 cells per well containing 200 μL and 800 μL of culture medium in the apical and basolateral compartments respectively) and treated with vehicle or NX218 (1, 10 and 100 μM) for 1, 2 or 3 days. Two hundred (200) μL of 1 mg/mL of a 40-kDa FITC Dextran in DMEM supplemented with 10% FBS and 2 mM sodium pyruvate were added to the apical chamber of each well, and the cells were incubated at 37° C. Sampling aliquots were taken from the basolateral chamber and replaced with fresh medium every 15 min for 1 h and then transferred to 96-well plates. FITC-Dextran fluorescence was determined using a spectrofluorometer at an excitation wavelength of 485 nm and an emission wavelength of 520 nm. Relative fluorescence units were converted to values of nanograms per milliliter, using FITC-Dextran standard curves, and was corrected for background fluorescence and serial dilutions over the course of the experiment. The data are expressed as the endothelial permeability coefficient (Pe) in cm/min.
# [2] = tested on: Occludin in mouse brain endothelial bEnd.3 cells; experiment: Occludin western blot in mouse brain endothelial cell cultures; assay type: cell-based; conditions: for Expression of Occludin, Average: average of N1-N8
# Description: To understand the effect of NX218 on the TEER and permeability of mouse brain endothelial cells, the levels of the tight junction protein Occludin were assessed using Western Blot.
# Mouse brain endothelial cells (bEnd.3, American Type Culture Collection) were cultured in DMEM supplemented with 10% fetal FBS and 2 mM sodium pyruvate in a 5% CO2 incubator at 37° C.
# bEnd.3 cells were seeded on 12-well plates (2.5×10^5 cells per well in 1,000 μL) for western-blot analyses. Two days after seeding, cells were treated with vehicle or NX218 (1, 10 and 100 μM) for 24 hours. Proteins were isolated from the cell layers with lysis buffer (62.5 mM Tris, 2% SDS, 10 mM dithiothreitol, 10 μL protease inhibitor cocktail/100 mL (Sigma-Aldrich)), centrifugated at 12,000 r.p.m for 20 min at 4° C., and supernatants were used for analysis of tight junction proteins. Protein concentrations were determined with the Pierce BCA protein assay (Thermo Scientific). Ten (10) μL of samples and standards (working range=125-2000 μg/mL) were loaded in duplicate into a 96-well plate and 200 μL of working reagent (50 parts BCA reagent A with 1 part BCA reagent B) were added to each well, mixed on a shaker and incubated at 37° C. for 30 min. The plate was cooled to RT and the absorbance read at 562 nm. Protein concentrations were calculated from a standard curve. Ten (10) μg total protein were loaded per well for separation by SDS-polyacrylamide gel electrophoresis (12% acrylamide). Gels were transferred onto methanol-activated polyvinylidene difluoride membranes (Merck Millipore) via semi-dry transfer. Transferred membranes were reactivated with methanol and blocked under slight agitation in tris-buffered saline (TBS)-Tween-20 containing 3% weight/volume Marvel non-fat dry milk for 1 h at RT. Blocked membranes were washed three times with TBS-Tween-20 and treated with primary rabbit polyclonal antibodies against Occludin (Novus Biotech, ref. NBP1-87402, 65 kDa, 1/1000 dilution) overnight at 4° C. Membranes were washed three times for 5 min in TBS-Tween-20 and incubated with horseradish peroxidase-conjugated goat anti-rabbit secondary antibody (A6154, Sigma-Aldrich) diluted 1/2,000 in TBS-Tween-20 for 2 h at RT. Secondary antibody was removed and membranes washed four times for 5 min in TBS-Tween-20. Blots were developed by enhanced chemiluminescence (ECL). A 1:1 mix of WesternBright ECL Luminol/enhancer solution and Peroxide Chemiluminescent solution (Advansta) was incubated at RT for 2 min before being directly added onto washed blots. The LiCor C-Digit Blot Scanner was used to detect chemiluminescence over a 12-minute exposure time.
substance,measurement,setting,value
W-S-G-W-S-S-C-S-R-S-C-G (WSGWSSCSRSCG; disulfide 7-11 (inferred)) [NX218],"Permeability to FITC-40 kDa Dextran (Pe), Average","[1]; NX218 1 μM, 24 hours, average of N1-N3, control 0.066",1064 ×10⁻⁶ cm/s
same,Permeability to FITC-40 kDa Dextran (endothelial permeability coefficient Pe),"[1]; NX218 1 μM, 24 hours",1020 ×10⁻⁶ cm/s and 971 ×10⁻⁶ cm/s and 1200 ×10⁻⁶ cm/s
same,"Permeability to FITC-40 kDa Dextran (Pe), Average","[1]; NX218 1 μM, 48 hours, average of N1-N3, control 0.05616",896.3 ×10⁻⁶ cm/s
same,Permeability to FITC-40 kDa Dextran (endothelial permeability coefficient Pe),"[1]; NX218 1 μM, 48 hours",963 ×10⁻⁶ cm/s and 781.5 ×10⁻⁶ cm/s and 944.3 ×10⁻⁶ cm/s
same,"Permeability to FITC-40 kDa Dextran (Pe), Average","[1]; NX218 1 μM, 72 hours, average of N1-N3, control 0.0532667",906.3 ×10⁻⁶ cm/s
same,Permeability to FITC-40 kDa Dextran (endothelial permeability coefficient Pe),"[1]; NX218 1 μM, 72 hours",942 ×10⁻⁶ cm/s and 942.2 ×10⁻⁶ cm/s and 834.8 ×10⁻⁶ cm/s
same,"Permeability to FITC-40 kDa Dextran (Pe), Average","[1]; NX218 10 μM, 24 hours, average of N1-N3, control 0.066",977.3 ×10⁻⁶ cm/s
same,Permeability to FITC-40 kDa Dextran (endothelial permeability coefficient Pe),"[1]; NX218 10 μM, 24 hours",892 ×10⁻⁶ cm/s and 1030 ×10⁻⁶ cm/s and 1010 ×10⁻⁶ cm/s
same,"Permeability to FITC-40 kDa Dextran (Pe), Average","[1]; NX218 10 μM, 48 hours, average of N1-N3, control 0.05616",841.3 ×10⁻⁶ cm/s
same,Permeability to FITC-40 kDa Dextran (endothelial permeability coefficient Pe),"[1]; NX218 10 μM, 48 hours",909 ×10⁻⁶ cm/s and 760 ×10⁻⁶ cm/s and 855 ×10⁻⁶ cm/s
same,"Permeability to FITC-40 kDa Dextran (Pe), Average","[1]; NX218 10 μM, 72 hours, average of N1-N3, control 0.0532667",747.7 ×10⁻⁶ cm/s
same,Permeability to FITC-40 kDa Dextran (endothelial permeability coefficient Pe),"[1]; NX218 10 μM, 72 hours",748.2 ×10⁻⁶ cm/s and 783 ×10⁻⁶ cm/s and 712 ×10⁻⁶ cm/s
same,"Permeability to FITC-40 kDa Dextran (Pe), Average","[1]; NX218 100 μM, 24 hours, average of N1-N3, control 0.066",942 ×10⁻⁶ cm/s
same,Permeability to FITC-40 kDa Dextran (endothelial permeability coefficient Pe),"[1]; NX218 100 μM, 24 hours",907 ×10⁻⁶ cm/s and 1012 ×10⁻⁶ cm/s and 906.3 ×10⁻⁶ cm/s
same,"Permeability to FITC-40 kDa Dextran (Pe), Average","[1]; NX218 100 μM, 48 hours, average of N1-N3, control 0.05616",702 ×10⁻⁶ cm/s
same,Permeability to FITC-40 kDa Dextran (endothelial permeability coefficient Pe),"[1]; NX218 100 μM, 48 hours",627 ×10⁻⁶ cm/s and 725 ×10⁻⁶ cm/s and 753 ×10⁻⁶ cm/s
same,"Permeability to FITC-40 kDa Dextran (Pe), Average","[1]; NX218 100 μM, 72 hours, average of N1-N3, control 0.0532667",782 ×10⁻⁶ cm/s
same,Permeability to FITC-40 kDa Dextran (endothelial permeability coefficient Pe),"[1]; NX218 100 μM, 72 hours",798 ×10⁻⁶ cm/s and 758.7 ×10⁻⁶ cm/s and 787.7 ×10⁻⁶ cm/s
same,Increase of occludin protein levels vs control,"[2]; 1 μM, 24 h, bEnd.3, p=0.0309",+26.3%
same,Increase of occludin protein levels vs control,"[2]; 10 μM, 24 h, bEnd.3, p=0.0053",+41.1%
same,Increase of occludin protein levels vs control,"[2]; 100 μM, 24 h, bEnd.3, p=0.0112",+36.8%
same,"Occludin protein levels, result in words","[2]; 1, 10 and 100 μM, 24 h, compared with control",significant increase of occludin protein levels
same,Expression of Occludin,"[2]; FIG. 6, 24-hour treatment",increases the expression of Occludin
same,"Expression of Occludin, Average","[2]; NX218 1 μM, 24 hours, bEnd.3, western blot",126.30 % of Control
same,Expression of Occludin,"[2]; NX218 1 μM, 24 hours, bEnd.3, western blot, individual replicates N1-N8",124.20 % of Control and 120.60 % of Control and 92.30 % of Control and 152.80 % of Control and 146.80 % of Control and 135.50 % of Control and 125.00 % of Control and 113.00 % of Control
same,"Expression of Occludin, Average","[2]; NX218 10 μM, 24 hours, bEnd.3, western blot",141.10 % of Control
same,Expression of Occludin,"[2]; NX218 10 μM, 24 hours, bEnd.3, western blot, individual replicates N1-N8",124.20 % of Control and 123.30 % of Control and 114.20 % of Control and 93.50 % of Control and 187.30 % of Control and 166.20 % of Control and 176.60 % of Control and 143.50 % of Control
same,"Expression of Occludin, Average","[2]; NX218 100 μM, 24 hours, bEnd.3, western blot",136.80 % of Control
same,Expression of Occludin,"[2]; NX218 100 μM, 24 hours, bEnd.3, western blot, individual replicates N1-N8",112.10 % of Control and 103.80 % of Control and 111.20 % of Control and 188.40 % of Control and 123.40 % of Control and 158.40 % of Control and 122.20 % of Control and 174.50 % of Control

# — patent US20250152660A1, “SCO-spondin-derived polypeptides for treating biological barriers dysfunction” (AXOLTIS PHARMA, priority 2021, published 2025)
